Experimental data taken from patent US20030022812A1, “Treating pain by targeting hyperpolarization-activated, cyclic nucleotide-gated channels” (priority 2001, published 2003).

Columns and labels:
human HCN1 = biological target: T1, human HCN1 (Homo sapiens, UniProt O60741); assay: Two-electrode voltage clamp of Xenopus oocytes injected with human HCN1 cRNA; type: cell-based; conditions: Cs+ 3 mM; for block of HCN1 currents: n=3
T1 construct: expressed in transfected cells; host or cells: Xenopus laevis oocytes injected with cRNA transcribed from pGEMHE-human HCN1
T1 sequence (O60741 1-890): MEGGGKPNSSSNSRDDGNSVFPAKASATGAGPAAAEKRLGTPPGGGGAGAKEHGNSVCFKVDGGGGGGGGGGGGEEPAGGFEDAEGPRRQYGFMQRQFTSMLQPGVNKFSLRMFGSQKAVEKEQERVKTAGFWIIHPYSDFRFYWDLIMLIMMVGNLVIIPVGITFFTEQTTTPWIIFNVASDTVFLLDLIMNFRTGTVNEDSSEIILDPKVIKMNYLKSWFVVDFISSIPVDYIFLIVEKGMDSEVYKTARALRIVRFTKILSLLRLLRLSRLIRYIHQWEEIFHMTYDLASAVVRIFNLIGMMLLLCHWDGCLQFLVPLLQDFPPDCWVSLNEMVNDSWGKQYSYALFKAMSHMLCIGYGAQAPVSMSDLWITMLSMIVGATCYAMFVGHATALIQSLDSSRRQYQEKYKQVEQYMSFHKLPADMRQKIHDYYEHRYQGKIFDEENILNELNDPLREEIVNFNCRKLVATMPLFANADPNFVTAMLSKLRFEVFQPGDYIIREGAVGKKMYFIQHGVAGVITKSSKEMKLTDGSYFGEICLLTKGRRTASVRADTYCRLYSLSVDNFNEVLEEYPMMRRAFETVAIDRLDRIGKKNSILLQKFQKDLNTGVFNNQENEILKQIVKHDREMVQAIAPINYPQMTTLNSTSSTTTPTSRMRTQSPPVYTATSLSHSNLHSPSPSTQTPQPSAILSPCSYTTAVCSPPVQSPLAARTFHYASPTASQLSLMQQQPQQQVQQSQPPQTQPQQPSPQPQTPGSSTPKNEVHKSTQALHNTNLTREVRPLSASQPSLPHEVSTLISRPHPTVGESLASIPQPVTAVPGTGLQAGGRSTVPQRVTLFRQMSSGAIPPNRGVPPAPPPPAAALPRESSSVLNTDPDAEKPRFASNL
Protocol: Xenopus laevis oocytes were prepared and injected using standard methods previously described and known in the art [Fraser et al. (1993). Electrophysiology: a practical approach. D. I. Wallis, IRL Press at Oxford University Press, Oxford: 65-86]. Ovarian lobes from adult female Xenopus laevis (Nasco, Fort Atkinson, Wis.) were teased apart, rinsed several times in nominally Ca-free saline containing: 82.5 mM NaCl, 2.5 mM KCl, 1 mM MgCl2, 5 mM HEPES, adjusted to pH 7.0 with NaOH (OR-2), and gently shaken in OR-2 containing 0.2% collagenase Type 1 (ICN Biomedicals, Aurora, Ohio) for 2-5 hours. When approximately 50% of the follicular layers were removed, Stage V and VI oocytes were selected and rinsed in media consisting of 75% OR-2 and 25% ND-96. The ND-96 contained: 100 mM NaCl, 2 mM KCl, 1 mM MgCl2, 1.8 mM CaCl2, 5 mM HEPES, 2.5 mM Na pyruvate, gentamicin (50 ug/ml), adjusted to pH 7.0 with NaOH. […] For in vitro transcription, PGEM HE (Liman et al., (1992) Neuron 9: 861-71) containing human HCN1 was linearized with NheI and transcribed with T7 RNA polymerase (Promega) in the presence of the cap analog m7G(5′)ppp(5′)G. The synthesized cRNA was precipitated with ammonium acetate and isopropanol, and resuspended in 50 μl nuclease-free water. cRNA was quantified using formaldehyde gels (1% agarose, 1×MOPS, 3% formaldehyde) against 1,2 and 5 μl RNA markers (Gibco BRL, 0.24-9.5 Kb).
Oocytes were injected with 50 nl of human HCN1 RNA (1-10 ng). Control oocytes were injected with 50 nl of water. Oocytes were incubated for 2 days in ND-96 before analysis for expression of human HCN1. Incubations and collagenase digestion were carried out at room temperature. Injected oocytes were maintained in 48 well cell culture clusters (Costar; Cambridge, Mass.) at 18° C. Whole cell voltage-activated currents were measured 2 days after injection with a conventional two-electrode voltage clamp (GeneClamp500, Axon Instruments, Foster City, Calif.) using standard methods previously described and known in the art (Dascal et al., (1987) Pflugers Arch 409: 512-20). The microelectrodes, which had resistances of ˜1 MΩ, were filled with 3 M KCl. Cells were continuously perfused with ND96 at ˜10 ml/min at room temperature. Membrane voltage was clamped at −30 mV unless indicated.
Oocytes were challenged with a series of hyperpolarizing voltage steps from a holding potential of −30 mV. Voltage steps (800 msec duration) to −40 through −180 mV in 20 mV intervals were applied to oocytes at a sampling rate of […]. Hyperpolarizing voltage steps activated an inward current having a threshold of about −60 mV. […] Cs^+ blocked HCN1 currents by 94, 92 and 90% when Ih was evoked by stepping to −80, −100 and −120 mV, respectively. […]

normal rats = assay: 55° C. hot plate test of acute thermally-evoked pain; type: in vivo, rat; conditions: 10 mg/kg i.p.
Protocol: A cutoff of 20 seconds of thermal surface exposure was employed to prevent tissue damage. Drug administration: Normal rats were administered ZD7288, 10 mg/kg, or an equivalent volume of saline, i.p. at time 0. Behavioral assessments were performed at 45, 60 and 75 minutes after drug administration.

effect on endogenous oocyte inward currents (human HCN1)	block of HCN1 currents (human HCN1; Ih evoked by stepping to −80 mV) [%]	block of HCN1 currents (human HCN1; Ih evoked by stepping to −100 mV) [%]	block of HCN1 currents (human HCN1; Ih evoked by stepping to −120 mV) [%]	Structure (SMILES)	effect on acute thermally-evoked pain (normal rats)	hot plate latency, difference versus saline (normal rats; 45 or 60 min)	hot plate latency, difference versus saline (normal rats; 75 min)
no effect	94	92	90	[Cl-].[Cs+] [Cs^+, CsCl]			
				CCN(c1ccccc1)c1cc(=NC)n(C)c(C)n1.Cl [ZD7288]	minimal effect	No statistically significant difference	approximately 15%
